Measured values as given in paper PMC5520492, “Inhibition of DNA2 nuclease as a therapeutic strategy targeting replication stress in cancer cells” (Oncogenesis, 2017).

How the values were obtained:
[1] = target: T1, Bloom syndrome (BLM) (Homo sapiens, UniProt P54132); assay: dsDNA unwinding by BLM; type: biochemical; details: 10 µM
T1 construct: made in house
Description: Figure S2. […] (a) Analysis of 5’ flap processing by hDNA2 in presence of the compounds at the indicated concentration. DNA2 (2.5 nM) was incubated with the Y DNA substrate (5 nM ends) and the indicated concentration of inhibitor. (b) Plots showing quantitation of the experiments shown in a. Plotted are the average data from three independent experiments with the error bars representing one standard deviation. (c) Analysis of dsDNA unwinding by BLM. BLM (4, 8 and 16 nM), RPA (100 nM) and internally radiolabelled dsDNA (0.5 nM ends) was incubated for 20 min at 37^ºC in presence of either DMSO or NSC-105808 (10 µM) and the products were resolved on a 1% agarose gel. (d) Plots showing quantitation of the experiments shown in c. Plotted are the average data from three independent experiments with the error bars representing one standard deviation. (e) Analysis of the degradation of a 2 kb internally labeled dsDNA (0.5 nM ends) by EXO1 (5 nM) in presence of NSC-105808 (10 µM). (f) Plot showing quantitation of the experiment in e. […] 100 nM hDNA2 was incubated with γ^32P-ATP in the presence of oligonucleotide ssDNA (200 nM) for 20 minutes at 37^ºC in presence of either DMSO or inhibitor (10 µM) and the products were resolved on a TLC plate. (h) Analysis of hDNA2 binding to DNA. […]

[2] = system: U2OS SSA reporter cells; assay: Single strand annealing (SSA) GFP reporter assay; type: cell-based, human; details: 24-h treatment
Source text: The DR-green fluorescent protein, pCAGGS and pCBASce plasmids were kindly provided by Dr Maria Jasin (Memorial Sloan-Kettering Cancer Center, New York, NY, USA). U2OS cells containing a single copy of the HR repair reporter substrate DR-green fluorescent protein were generated as previously described.[48] Single stand annealing reporter cells were kindly provided by Dr Jeremy Stark (Beckman Research Institute of the City of Hope, Duarte, CA, USA).[49] Details in Supplementary Materials and Methods.
Figure S6. NSC-105808 reduces DSB repair by SSA. Cells were transfected with EGFP or I-SceI plasmids for 24 hrs and then cultured for an additional 48 hr before analysis by flow cytometry (top). Treatment with NSC-105808 was for 24 hrs prior to flow cytometry. Bar graph showing SSA efficiency in cells treated with NSC-105808 as compared to control cells treated with DMSO. The average data from three independent experiments are shown, with the error bars representing standard deviation (n=3, bottom).
The GFP expressing plasmid (pEGFP-C1) was used for transfection efficiency control. Cells were transfected with the pCBASce plasmid. […] Efficiency of HR and SSA was calculated by normalizing I-SceI-induced GFP expression with EGFP transfection-induced GFP expression. […]

T1 sequence (P54132 whole entry): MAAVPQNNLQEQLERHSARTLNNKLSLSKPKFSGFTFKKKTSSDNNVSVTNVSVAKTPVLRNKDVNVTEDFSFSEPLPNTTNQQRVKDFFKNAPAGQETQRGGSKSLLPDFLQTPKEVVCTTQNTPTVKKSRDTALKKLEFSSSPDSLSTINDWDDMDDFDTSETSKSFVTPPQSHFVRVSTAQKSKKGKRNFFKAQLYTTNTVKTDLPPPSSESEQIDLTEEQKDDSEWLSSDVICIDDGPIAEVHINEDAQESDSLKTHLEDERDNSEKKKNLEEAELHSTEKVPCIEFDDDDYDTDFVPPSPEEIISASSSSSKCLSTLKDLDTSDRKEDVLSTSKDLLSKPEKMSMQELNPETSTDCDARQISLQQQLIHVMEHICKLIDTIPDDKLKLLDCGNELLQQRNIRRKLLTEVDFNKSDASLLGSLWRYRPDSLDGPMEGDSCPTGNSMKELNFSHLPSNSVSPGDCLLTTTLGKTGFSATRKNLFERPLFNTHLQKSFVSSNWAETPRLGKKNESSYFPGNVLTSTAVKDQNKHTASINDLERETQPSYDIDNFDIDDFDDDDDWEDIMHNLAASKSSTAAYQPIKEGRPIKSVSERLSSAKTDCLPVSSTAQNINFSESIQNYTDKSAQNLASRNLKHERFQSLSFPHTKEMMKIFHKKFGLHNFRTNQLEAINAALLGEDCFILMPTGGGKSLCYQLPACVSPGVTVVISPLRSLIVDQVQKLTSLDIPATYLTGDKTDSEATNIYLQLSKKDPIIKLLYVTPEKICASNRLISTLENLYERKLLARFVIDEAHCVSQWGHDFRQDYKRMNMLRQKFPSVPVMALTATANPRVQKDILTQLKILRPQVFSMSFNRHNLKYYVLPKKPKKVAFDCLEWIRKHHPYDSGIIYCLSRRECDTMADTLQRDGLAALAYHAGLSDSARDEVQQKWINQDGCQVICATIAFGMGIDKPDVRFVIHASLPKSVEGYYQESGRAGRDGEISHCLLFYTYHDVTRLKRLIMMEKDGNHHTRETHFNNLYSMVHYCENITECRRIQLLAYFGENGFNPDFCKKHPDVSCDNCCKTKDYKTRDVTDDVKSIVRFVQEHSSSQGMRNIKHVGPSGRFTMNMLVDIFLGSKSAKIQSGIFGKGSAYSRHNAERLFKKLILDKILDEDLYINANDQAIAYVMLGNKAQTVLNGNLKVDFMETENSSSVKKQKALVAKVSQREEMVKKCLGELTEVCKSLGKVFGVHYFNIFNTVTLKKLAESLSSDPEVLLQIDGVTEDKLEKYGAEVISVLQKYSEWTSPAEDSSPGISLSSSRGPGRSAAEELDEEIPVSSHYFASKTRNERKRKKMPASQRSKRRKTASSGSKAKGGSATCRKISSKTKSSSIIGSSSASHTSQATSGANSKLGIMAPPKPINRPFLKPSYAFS

Which “Effect on ability of Bloom syndrome to unwind DNA” value [1] does the source give for `NC1=C(Br)C(=O)c2ncccc2C1=O` [NSC-105808, 6-amino-7-bromoquinoline-5,8-dione] here?
Its value is “no effect”.

And the “DSB repair by single stand annealing” value [2]?
The value was “significantly reduced”.
